This is an account of results in ChEMBL document CHEMBL5584361, “Re-Evaluating PIN1 as a Therapeutic Target in Oncology Using Neutral Inhibitors and PROTACs” (J Med Chem, 2024).

A value given as a limit tells only on which side of the number the result lay.

What is called IC50 is the concentration that inhibits the measured activity by half. As usually defined, the Ki is the equilibrium dissociation constant of an inhibitor or competing ligand from its target. By Kd is commonly meant the free concentration of one partner at which half of the binding sites on the other are occupied at equilibrium, for simple one-to-one binding. One may read the GI50 as the concentration at which growth is held to half of that of the control. What is called Papp A→B is the apparent permeability from the apical to the basolateral side of a cell layer. A low value points to slow passage. As a reminder, the DC50 is the concentration at which degradation of the target reaches its halfway point. A word on the efflux ratio: it is the permeability from basolateral to apical divided by that in the opposite direction, in the common usage.

The target in series [1] is T1, Peptidyl-prolyl cis-trans isomerase NIMA-interacting 1 (Homo sapiens, UniProt Q13526). The series can be described thus: Inhibition of recombinant human PIN1 prolyl isomerase activity measured after 180 mins.
Series [2] concerns the target T1, Peptidyl-prolyl cis-trans isomerase NIMA-interacting 1.
Series [3] has the same target. The series can be described thus: Inhibition of His-tagged PIN1 (unknown origin) TAMRA labelled Bth-D-pThr-Pip-L-2Nal as substrate incubated for 30 mins by fluorescence polarization analysis. (Polarisation of emitted light reports the rotation of a fluorescent probe.)
Series [4] has the same target. The series can be described thus: Binding affinity to GST-tagged PIN1 (unknown origin) assessed as dissociation constant by SPR analysis. (In general: SPR reads the build-up and loss of mass on a sensor chip optically.)
Another series deals with MDA-MB-468. Nature of the series: Antiproliferative activity against human MDA-MB-468 cells assessed as cell growth inhibition incubated for 96 hrs by Cell-Titer Glo assay. The note with it: MDA-MB-468, 96 h.
The subject of a further series is PANC-1. Nature of the series: Antiproliferative activity against human PANC-1 cells assessed as cell growth inhibition incubated for 96 hrs by Cell-Titer Glo assay. The note with it: PANC-1, 96 h.
The next series relates to Huh-7. Nature of the series: Antiproliferative activity against human Huh-7 cells assessed as cell growth inhibition incubated for 96 hrs by Cell-Titer Glo assay. The note with it: Huh-7, 96 h.
Series [5] is described as follows: Permeability across apical to basolateral side in MDCK cells incubated for 120 mins by LC-MS/MS analysis. The note with it: dog.
For series [6], the target named is Protein cereblon/Peptidyl-prolyl cis-trans isomerase NIMA-interacting 1 (Homo sapiens, UniProt Q13526+Q96SW2). Nature of the series: PROTAC activity at CRBN/PIN1 in human MDA-MB-468 cells assessed as induction of PIN1 degradation incubated for 24 hrs by high content analysis.
Series [7] in a line: Efflux ratio of permeability across basolateral to apical side over apical to basolateral side in MDCK cells incubated for 120 mins by LC-MS/MS analysis. The note with it: dog.

T1 sequence (Q13526 whole entry): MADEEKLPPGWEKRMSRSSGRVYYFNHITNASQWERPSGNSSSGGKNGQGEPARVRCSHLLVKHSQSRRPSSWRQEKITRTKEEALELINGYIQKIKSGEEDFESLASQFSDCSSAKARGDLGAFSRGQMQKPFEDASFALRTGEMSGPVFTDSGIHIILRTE
Sequence of Protein cereblon/Peptidyl-prolyl cis-trans isomerase NIMA-interacting 1 (Q13526 whole entry): as above
Sequence of Protein cereblon/Peptidyl-prolyl cis-trans isomerase NIMA-interacting 1 (Q96SW2 whole entry): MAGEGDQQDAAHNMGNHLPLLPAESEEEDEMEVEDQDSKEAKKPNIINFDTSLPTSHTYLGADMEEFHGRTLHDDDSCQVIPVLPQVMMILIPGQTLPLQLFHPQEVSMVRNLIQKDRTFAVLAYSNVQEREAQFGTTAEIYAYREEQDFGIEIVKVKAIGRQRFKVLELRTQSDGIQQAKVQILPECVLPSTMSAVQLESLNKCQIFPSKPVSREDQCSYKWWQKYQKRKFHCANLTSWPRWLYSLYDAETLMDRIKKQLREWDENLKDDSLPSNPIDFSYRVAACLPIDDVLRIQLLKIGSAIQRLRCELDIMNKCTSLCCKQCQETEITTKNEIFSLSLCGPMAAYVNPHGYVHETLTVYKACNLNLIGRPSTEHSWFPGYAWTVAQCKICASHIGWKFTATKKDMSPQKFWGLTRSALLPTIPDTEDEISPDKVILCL

For `CC(C)(C)c1ccc(S(=O)(=O)/N=C2\C=C(SCC(=O)O)C(=O)c3ccccc32)cc1`, in [1], the IC50 was 0.64 µM.

For the molecule `CC(C)(C)CN(C(=O)CCl)C1CCS(=O)(=O)C1` (stereo unspecified), in series [2], affinity was put at a Ki of 0.017 µM.

Consider `CNC(=O)C(Cc1cn(-c2ccc(-c3ccc(C#N)cc3)cc2)nn1)NC(=O)C1(c2ccccc2)CCCC1` (stereo unspecified), for which the IC50 in series [3] was greater than 100 µM.

Take `CNC(=O)C(Cc1cn(-c2ccc(-c3ccc(C#N)cc3)cc2)nn1)NC(=O)C1(c2ncccc2C)CC1` (stereo unspecified): the Kd in [4] stood at 0.37 µM. In [3], this molecule returned an IC50 of 0.36 µM. The GI50 was 4.6 µM in the series on MDA-MB-468, greater than 30 µM in the series on PANC-1 and greater than 30 µM in the series with Huh-7.

For `Cc1ccccc1C1(C(=O)NC(Cc2cn(-c3ccc(-c4ccc(C#N)cc4)cc3)nn2)C(=O)NC2CCN(C)CC2)CC1` (stereo unspecified), the concentration for 50% growth inhibition (GI50) stood at 36.8 µM in the series with MDA-MB-468, 9.3 µM with PANC-1 and 9.9 µM in the series with Huh-7. Besides, in series [5], the Papp A→B at 2 h worked out at 0.01 ×10⁻⁶ cm/s.

`Cc1cccnc1C1(C(=O)NC(Cc2cn(-c3ccc(-c4ccc(C#N)cc4)cc3)nn2)C(=O)NCCCOc2cccc3c2C(=O)N(C2CCC(=O)NC2=O)C3=O)CC1` (stereo unspecified): the GI50 in the series with MDA-MB-468 was 2.7 µM; in the series with PANC-1 it was greater than 30 µM; in the series on Huh-7 it was 5.8 µM. The DC50 in series [6] was found to be 0.02 µM.

Consider `CNC(=O)C(Cc1cn(-c2ccn(C)n2)nn1)NC(=O)C1(c2ccccc2)CC1` (stereo unspecified), for which the Kd in [4] was 39.3 µM. Also, in [3], the IC50 is greater than 10 µM.

The molecule `CNC(=O)C(Cc1cn(-c2ccc(-c3ccc(C#N)cc3)cc2)nn1)NC(=O)C1(c2ccccc2)CCC1` (stereo unspecified) showed an IC50 in [3] greater than 100 µM.

In the case of `Cc1cccnc1C1(C(=O)NC(Cc2cn(-c3ccc(-c4ccc(C#N)cc4)cc3)nn2)C(=O)NCCCCOc2cccc3c2C(=O)N(C2CCC(=O)NC2=O)C3=O)CC1` (stereo unspecified), the results for the GI50 in the series on MDA-MB-468, in the series on PANC-1 and in the series with Huh-7 were 16.5 µM, greater than 30 µM and 20.7 µM, respectively. Further, the DC50 in [6] was 0.071 µM.

For `CNC(=O)C(Cc1cn(Cc2cc3ccccc3s2)nn1)NC(=O)C1(c2ccccc2)CC1` (stereo unspecified), the Kd in series [4] is greater than 50 µM. The same molecule returned an IC50 in series [3] greater than 100 µM.

`CNC(=O)C(Cc1cn(-c2ccc(-c3ccc(C#N)cc3)cc2)nn1)NC(=O)C1(c2ccccc2)CCCCC1` (stereo unspecified) yielded a half-maximal inhibitory concentration (IC50) in [3] greater than 100 µM.

Molecule `CNC(=O)C(Cc1cn(-c2ccc(-c3ccc(C#N)cc3)cc2)nn1)NC(=O)Cc1ccccc1` (stereo unspecified) registered an IC50 in [3] greater than 100 µM.

As to `CNC(=O)C(Cc1cn(-c2ccc(C3CCN(C)CC3)cc2)nn1)NC(=O)C1(c2ccccc2)CC1` (stereo unspecified), the IC50 in series [3] was greater than 100 µM.

With `CNC(=O)/C(=C\c1cn(-c2ccc(-c3ccc(C#N)cc3)cc2)nn1)NC(=O)C1(c2ccccc2C)CC1`, the Kd in series [4] came out at 0.12 µM. Moreover, the IC50 in series [3] came out at 0.25 µM. For the same molecule, the GI50 in the series on MDA-MB-468 was found to be 13.8 µM; in the series on PANC-1 it was 23.1 µM; with Huh-7, 15.4 µM. The molecule further had an apical-to-basolateral permeability (Papp A→B) at 2 h in [5] of 0.78 ×10⁻⁶ cm/s. In addition, the efflux ratio at 2 h in series [7] worked out at 4.77.

On to `Cc1cccnc1C1(C(=O)NC(Cc2cn(-c3ccc(-c4ccc(C#N)cc4)cc3)nn2)C(=O)NC2CCN(CCCOc3cccc4c3C(=O)N(C3CCC(=O)NC3=O)C4=O)CC2)CC1` (stereo unspecified), for which the GI50 in the series on MDA-MB-468, in the series on PANC-1 and in the series with Huh-7 was greater than 30 µM throughout. Moreover, in [6], the DC50 was 0.041 µM.

As to `CNC(=O)C(Cc1cn(-c2ccc(-c3ccc(C#N)cc3)cc2)nn1)NC(=O)C(C)(C)c1ccccc1` (stereo unspecified), the Kd in series [4] was found to be 2.93 µM. In series [3], this molecule showed an IC50 of 2.09 µM.

With `CC(C)(C)NC(=O)C(Cc1cn(-c2ccc(-c3ccc(C#N)cc3)cc2)nn1)NC(=O)C1(c2ccccc2)CC1` (stereo unspecified), the IC50 in series [3] is greater than 100 µM.

`Cc1cccnc1C1(C(=O)NC(Cc2cn(-c3ccc(-c4ccc(C#N)cc4)cc3)nn2)C(=O)NC2CCN(CCCCCOc3cccc4c3C(=O)N(C3CCC(=O)NC3=O)C4=O)CC2)CC1` (stereo unspecified): the GI50 with MDA-MB-468, with PANC-1 and in the series with Huh-7 was greater than 30 µM each time. Also, the DC50 in series [6] is 0.019 µM.
